The structures appear in SMILES notation. ± gives the expanded uncertainty stated by the source.

The conditions of data set [1]: Crystal; DTA.
A short description of data set [2]: Molar enthalpy of transition or fusion. The conditions noted are these: Crystal; DSC.

`NC(=O)CN1CC(O)CC1=O` (configuration not stated) [4-hydroxy-2-oxo-1-pyrrolidineacetamide]: the Normal melting temperature in data set [1] amounted to 172.13 ± 0.61 °C. In addition, the “Molar enthalpy of transition or fusion” value in data set [2] was found to be 34.7 ± 1.4 kJ/mol.
